Reference: patent US5948635A, “Totally Synthetic Affinity Reagents” (University of North Carolina at Chapel Hill, priority 1995, dated 1999)
No end group written: not given here.

Tests used:
streptavidin = target: T1, streptavidin (Streptomyces avidinii, UniProt P22629); assay: Inhibition of TSAR binding to streptavidin by biotin and biotin analogs; settings: for IC50: representative TSARs SA-1, -2, -4 and -14
T1 construct: purchased Advanced Magnetics, Cambridge, Mass
Method: Specificity of the binding of the identified proteins for streptavidin was investigated by evaluating inhibition of binding by biotin and by a number of biotin analogs, including diaminobiotin, immunobiotin, lipoic acid and imidazalidone. Four representative TSARs, pictured in Table 9, were evaluated, i.e., SA-1,-2, -4 and -14 (SEQ ID NOs. 116, 114, 104 and 117).

[1] = Immobilized metal affinity chromatography of phage on Zn(II)-IDA; type: binding; settings: for relative retention by Zn(II)-IDA: comparison of four clones
Method: The TSAR-9 random peptide library was subjected to IMAC chromatography as follows: 0.5 ml bed volume iminodiacetic acid (IDA) Sepharose (Sigma Chemical Co.) columns were washed with 1 ml of sterile doubly distilled (dd) H2 O, charged with 5 ml of 10 mM ZnCl2 in dd H2 O followed by 3 ml sterile dd H2 O and equilibrated with 10 ml 10 mM Tris-HCl, 150 mM NaCl, 0.1% Tween-20, pH 7.5 (T10NT) to prepare the Zn(II) IDA column. 10^12 pfu of the TSAR-9 random peptide library were passed over the Zn(II) IDA column and washed with 10 ml T10NT. Bound phage were eluted with 500 μl 200 mM glycine-HCl, pH 2.2 and the pH was then neutralized with 500 μl 1 M phosphate buffer, pH 7.5+1 ml T10NT. Eluted phage were subjected to two further rounds of selection and the resulting population was amplified by overnight growth on a lawn of E. coli DH5αF'.
To quantitate the relative binding of the Zn(II)-IDA selected TSARs, each TSAR encoding phage was chromatographed over Zn(II)-IDA. Three fractions were collected and titered for phage: wash (unbound), elution (bound, eluted), and column (bound, not eluted).
The binding specificity of a number of the identified Zn-binding proteins was evaluated by chromatography using IDA columns charged with Zn^+2, Cu^+2 or Ni^+2. A particular Zn-binding phage (10×10^11 pfu) in 1 ml of 100 mM Tris-HCl, 150 mM NaCl, 0.1% Tween-20, pH 7.5 (T100NT) was loaded onto a Zn(II)-, Cu(II)- or Ni(II)-IDA column and the columns were washed as described above, except that T100NT was substituted for T10NT. The columns were eluted with acid; Zn^+2 (2 ml 100 mM ZnCl2 in T1OONT, pH 7.5), or imidazole (2 ml 100 mM imidazole in T100NT, pH 7.5). Three fractions were collected and titered for the presence of phage: the wash fraction (.box-solid.), the elution fraction and the metal II-IDA column matrix resuspended in T10NT (.quadrature.).Results obtained are shown in FIG. 16 A and B.

C46 monoclonal antibody = assay: Competition of CEA with phage for binding to immobilized C46 antibody; parameters: species or system mouse; settings: CEA 1, 25, 250, 2500 ng; FIG. 17
Method: Microtiter dish wells were coated with 50 μl of the C46 monoclonal antibody (5 μg/ml in 100 mM NaHCO3, pH 8.5) for 2 hr at 4° C. To the wells, 50 μl of BSA (1 mg/ml in 100 mM NaHCO3, pH 8.5) were added and the wells incubated for 30 min. at room temperature. The wells were washed (5×) with PBS-0.05% Tween 20.
To each well was added either 25 μl of C46-binding phage (C46.9-1 or C46.9-2) and increasing amounts of highly purified CEA (1, 25, 250, 2500 ng) (Scripps Clinic). After 2 hr incubation at room temperature, the wells were washed (10×) with PBS-0.05% Tween 20. 25 μl of 200 mM glycine-HCl (pH 2.2) were then added to the wells and they were incubated at room temperature for 5 min. The liquid was then transferred to new microtiter dish wells that contained 50 μl of 1M NaHPO4. The contents of the well were then serially diluted and aliquots were plated to count plaques.

7E11-C5 antibody = assay: Relative affinity: phage binding to microtiter plates coated with differing amounts of 7E11-C5; parameters: species or system mouse; settings: plates coated with 0, 4, 20, 100 and 500 ng antibody
Method: The relative affinity of the different 7E11-C5 binding TSARs for the 7E11-C5 antibody was compared. Microtiter plates were coated with differing amounts of the antibody (i.e., 0, 4, 20, 100 and 500 ng) prior to phage binding. Our prediction was that the TSAR with the highest affinity for the antibody would still bind effectively to wells coated with lower amounts of antibody. […] These TSARs all have Y as the second amino acid in the motif. The next class of TSARs bound ~2-fold less well; as represented by 12-2, which also had Y as the second amino acid. Three TSARs bound 5-10 fold less well than the best binders as represented by 9-2, 9-4, and 12-4; their inserts had W or H at the second position of the motif. Finally, TSAR 12-3 bound 50-fold less well than the best binders; this TSAR has I and R in the second and sixth positions, respectively. Thus, it seems that the 7E11-C5 epitope can be mimicked by a linear peptide sequence that has both variant and invariant residues.

[2] = test system: 7E11-C5 monoclonal antibody; assay: Competitive binding ELISA: inhibition of 7E11-C5 binding to LNCaP cell lysate antigen; parameters: species or system mouse; settings: for inhibition of 7E11-C5 binding to its antigen by phage: phage 6.3×10^7 to 6.3×10^11 pfu, 7E11-C5 30 ng/ml; for competitive inhibition of 7E11-C5 binding to LNCaP extract by peptide: peptides, amide form, FIG. 13
Method: Each well of a polyvinylchloride 96-well ELISA plate (Cooke, Alexandria, Va.) was coated with an LNCAP human prostate carcinoma cell (ATCC # CRL 1740) lysate. Lysates were prepared by harvesting confluent LNCaP cell cultures, resuspending cells in 4 volumes of 1 mM MgCl2 for 5 minutes, mixing with 2 μg of DNase (Boehringer Mannheim, Indianapolis, Ind.) and homogenizing using 40 strokes in a Dounce homogenizer (Wheaton, Millville, N.J.). LNCaP lysate (50 μl per well of a 1:50 dilution in 0.1×PBS [Dulbecco's pH 7.2, JRH, Denver, Pa.]) was air dried overnight at 37° C. onto wells of the ELISA plate. ELISA plates were blocked with 150 μl/well of 1% BSA (Pentex Fraction V, Miles, Kankakee, Ill.) in PBS for 60 minutes at room temperature.
The blank control consisted of blocking solution in the absence of primary antibody. 7E11-C5 monoclonal antibody pre-incubated with buffer without any phage (MAb) was the positive control. The expression vector m663 phage was also employed as a non-specific phage control.
Plates were washed 4 times with 0.05% Tween-20 in PBS. Bound monoclonal antibody 7E11-C5 was detected by: (1) incubating with 50 μl/well of anti-mouse IgG1 -HRP (Fisher Biotech, Orangeburg, N.Y.) diluted to 0.4 ng/ml in 1% BSA-PBS, for 60 minutes at room temperature; (2) washing plates 6 times with 0.05% Tween-20 in PBS; and (3) adding 100 μl/well ABTS substrate [200 μl ABTS, (Boehringer Mannheim), 10 ml citrate buffer (pH 4), 10 μl H2 O2 ]. Optical density of the reactions products was determined by endpoint analysis on a Multiscan plate reader (Molecular Devices, Menlo Park, Calif.). The competitive inhibition (%) was determined by comparing the reactivity of the positive control to the test samples.
(§1) The TSAR-based peptide (SEQ ID NO 31) concentration ranged from 1.75 to 1130 nM. […] Two additional control peptides (amide form) having the following amino acid sequences: RGD-21: NH2 -[…]-CONH2 (SEQ ID NO 32) and CYT-379: NH2 -[…]-CONH2 (SEQ ID NO 33) were also evaluated. Herein these control peptides are referred to as Control Peptide 1 and Control Peptide 2. […] The B139 monoclonal antibody, which is a murine IgG1 monoclonal antibody that reacts with all human epithelial cells, recognizes a different antigen in the LNCaP extract from that recognized by the 7E11-C5 antibody. The control B139 monoclonal antibody was used at a concentration of 9 ng/ml. The results obtained are illustrated in FIG. 13.

[3] = test system: 7E11-C5 monoclonal antibody; assay: ELISA of antibody binding to immobilized peptide; parameters: species or system mouse; settings: peptide adsorbed on polyvinylchloride plates, 0.5-500 μg/ml; FIG. 14, 15
Method: (§2) Peptides, diluted in 10% PBS (Dulbecco's, pH 7.2, Hazelton), were immobilized by adsorption on polyvinylchloride plates. SEQ ID NO 31 (amide form) was diluted in 10% PBS at 0.5, 5, 50 or 500 μg/ml. Control peptide 2 in 10% PBS at the same range of concentrations served as the control. A 50 μl volume of the test or control peptide solution was added to each well and incubated overnight at 4° C. The peptide solution was removed and 10% BSA-PBS was added as blocking solution. […] Bound 7E11-C5 monoclonal antibody was detected with anti-mouse IgG1 -HRP as described above herein.

B139 monoclonal antibody [4] = assay: ELISA of control antibody binding to immobilized peptide; parameters: species or system murine; settings: peptide coated at 5 μg/ml; FIG. 15
Method: as §2

B139 monoclonal antibody [5] = assay: Competitive binding ELISA: inhibition of B139 binding to LNCaP extract; parameters: species or system murine; settings: B139 9 ng/ml; FIG. 13
Method: as §1

T1 sequence (P22629 25-183): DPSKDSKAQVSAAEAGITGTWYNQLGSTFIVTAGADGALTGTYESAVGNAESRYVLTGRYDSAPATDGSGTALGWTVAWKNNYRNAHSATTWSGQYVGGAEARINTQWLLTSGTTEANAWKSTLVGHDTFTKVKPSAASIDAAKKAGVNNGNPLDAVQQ

Molecule: O=C(O)CCCC[C@@H]1CCSS1 (racemic) [lipoic acid]
- IC50 (streptavidin): ~1050 µM

Molecule: N[C@@H]1[C@H](CCCCC(=O)O)SC[C@@H]1N [diaminobiotin]
- IC50 (streptavidin): ~0.2 µM

Molecule: N=C1N[C@H]2[C@H](CS[C@H]2CCCCC(=O)O)N1 [immunobiotin]
- IC50 (streptavidin): ~3 µM

Molecule: ATEQHYWTQYHKPYHPSVPGFHVKSVTETTDHWESRNG [Zn1B8]
- relative retention by Zn(II)-IDA [1]: exhibit the least retention
- retention on Zn(II)-IDA, of recovered phage [1]: 85%

Molecule: CNFRGQCVSAPQTSNSKSPGWDTTWHDFRKEQFYNLTS [C46-9.2]
- competition with CEA for binding to the C46 antibody (C46 monoclonal antibody): competitive binding

Molecule: FDHTYSGPVCVKNGGLVSPGVLS MYNRLH SDGGPSLAS [7E11.9-3]
- relative binding to 7E11-C5 (fold less well than the best binders) (7E11-C5 antibody): bound the best

Molecule: HSYHDVATTKPGSHCMHNPGHPPPPNCHMAKAHSHNRI [Zn1A12]
- relative retention by Zn(II)-IDA [1]: exhibit the least retention

Molecule: IAHRVVAYNSLDSNPIWLPGEESSSVFGDY HPMF RAPV [SA-4]
- inhibition of TSAR binding to streptavidin by biotin and all the biotin analogs tested (streptavidin): completely inhibited

Molecule: IDMPETAST MYNMLH RNEPGGRKLSPPANDMPPALLKR [7E11.9-5]
- relative binding to 7E11-C5 (fold less well than the best binders) (7E11-C5 antibody): bound the best
- inhibition of 7E11-C5 binding to its antigen by phage [2]: inhibited the binding of 7E11-C5 monoclonal antibody to its antigen, in a dose dependent fashion

Molecule: NAVRVDSGYPPNPNTFHLPGCIDVLSSGCRLFSAHSEY [C46-9.1]
- competition with CEA for binding to the C46 antibody (C46 monoclonal antibody): competitive binding

Molecule: NH2 -SYGRGDVRGDFKCTCCA-CONH2 (H-SYGRGDVRGDFKCTCCA-NH2; cysteine pairing not given here) [Control Peptide 2]
- competitive inhibition of 7E11-C5 binding to LNCaP extract by peptide [2]: did not effectively compete
- binding of 7E11-C5 to immobilized peptide [3]: did not bind to either of the tested antibodies
- binding of B139 to immobilized peptide (B139 monoclonal antibody [4]): did not bind to either of the tested antibodies
- competitive inhibition of B139 binding to LNCaP extract by peptide (B139 monoclonal antibody [5]): neither SEQ ID NO 31 (amide form) nor either of Control Peptide 1 and Control Peptide 2 competitively inhibited the binding

Molecule: PDYDLMSSTCRFYGCSKMPGGVAVNGLFAVQGHSKYSS [SA-1]
- inhibition of TSAR binding to streptavidin by biotin and all the biotin analogs tested (streptavidin): completely inhibited

Molecule: PSYYRGDAGPSYYRGDAG-NH2 [Control Peptide 1]
- competitive inhibition of 7E11-C5 binding to LNCaP extract by peptide [2]: did not effectively compete
- binding of 7E11-C5 to immobilized peptide [3]: did not bind to either of the tested antibodies
- binding of B139 to immobilized peptide (B139 monoclonal antibody [4]): did not bind to either of the tested antibodies
- competitive inhibition of B139 binding to LNCaP extract by peptide (B139 monoclonal antibody [5]): neither SEQ ID NO 31 (amide form) nor either of Control Peptide 1 and Control Peptide 2 competitively inhibited the binding

Molecule: PVQKEYGFFMSGAS MIRLLR ETP [7E11.12-3]
- relative binding to 7E11-C5 (fold less well than the best binders) (7E11-C5 antibody): 50 fold

Molecule: QKGGPGLLLYGGDS MWITLH EPG [7E11.12-4]
- relative binding to 7E11-C5 (fold less well than the best binders) (7E11-C5 antibody): 5-10 fold

Molecule: RDSAVENPSVGGEIP MYRYLH QR [7E11.12-2]
- relative binding to 7E11-C5 (fold less well than the best binders) (7E11-C5 antibody): ~ 2 fold

Molecule: RLGNVWRVEGGG MYQQLH HNFPX^2 [7E11.12-1]
- relative binding to 7E11-C5 (fold less well than the best binders) (7E11-C5 antibody): bound the best
- inhibition of 7E11-C5 binding to its antigen by phage [2]: inhibited the binding of 7E11-C5 monoclonal antibody to its antigen, in a dose dependent fashion

Molecule: SSCAYARYVPLLLLLYANPG MYSRLH SPAVRPLTQSSA [7E11.9-1]
- relative binding to 7E11-C5 (fold less well than the best binders) (7E11-C5 antibody): bound the best
- inhibition of 7E11-C5 binding to its antigen by phage [2]: also inhibited 7E11-C5 monoclonal antibody binding

Molecule: SVQFKSISSRSMDDVVKDPGPKPA MWKMLH SKNPFTLS [7E11.9-2]
- relative binding to 7E11-C5 (fold less well than the best binders) (7E11-C5 antibody): 5-10 fold

Molecule: TVAT MHDTLH SAPGSGNLPGSYDIKPIFKASGALHSTX^2 [7E11.9-4]
- relative binding to 7E11-C5 (fold less well than the best binders) (7E11-C5 antibody): 5-10 fold

Molecule: YDHHSYNGDMHYPGWPPLPGPHHFAPIDVTTHSHTQPD [Zn1A1]
- retention on Zn(II)-IDA, of recovered phage [1]: 15%

Molecule: imidazalidone
- IC50 (streptavidin): ~5000 µM
